{
  "source": "patent US12384801B2",
  "about": "“Benzothiophene, thienopyridine and thienopyrimidine derivatives for the modulation of sting” (CTXT PTY LTD, priority 2019, dated 2025)",
  "key": {"[1]": {"target": "T1, human STING (HAQ) (Homo sapiens (Human), UniProt Q86WV6, G230A/H232R/R293Q)", "T1 sequence (Q86WV6 149-345 G230A/H232R/R293Q)": "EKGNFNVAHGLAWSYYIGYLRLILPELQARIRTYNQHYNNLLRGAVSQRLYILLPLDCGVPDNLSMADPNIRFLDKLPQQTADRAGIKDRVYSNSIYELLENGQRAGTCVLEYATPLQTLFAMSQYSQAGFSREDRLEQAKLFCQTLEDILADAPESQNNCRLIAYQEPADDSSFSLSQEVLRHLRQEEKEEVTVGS", "assay": "Surface Plasmon Resonance (SPR), STING (HAQ)", "conditions": "read-out: SPR (HAQ) KD; biotinylated STING on streptavidin chip, 8° C."}, "[2]": {"target": "T1, human STING (HAQ)", "assay": "Differential scanning fluorimetry (DSF), huSTING (HAQ)", "format": "binding", "conditions": "compound 100 μM, 2 μM protein, Tm with ligand minus Tm of protein alone (1% DMSO)", "description": "(§1) Data were analyzed using “Meltdown analysis” protocol described by Rosa (2015)."}, "[3]": {"target": "human HAQ isoform of STING (Homo sapiens (Human), UniProt Q86WV6, G230A/H232R/R293Q/R71H)", "sequence (Q86WV6 whole entry R71H/G230A/H232R/R293Q, canonical isoform)": "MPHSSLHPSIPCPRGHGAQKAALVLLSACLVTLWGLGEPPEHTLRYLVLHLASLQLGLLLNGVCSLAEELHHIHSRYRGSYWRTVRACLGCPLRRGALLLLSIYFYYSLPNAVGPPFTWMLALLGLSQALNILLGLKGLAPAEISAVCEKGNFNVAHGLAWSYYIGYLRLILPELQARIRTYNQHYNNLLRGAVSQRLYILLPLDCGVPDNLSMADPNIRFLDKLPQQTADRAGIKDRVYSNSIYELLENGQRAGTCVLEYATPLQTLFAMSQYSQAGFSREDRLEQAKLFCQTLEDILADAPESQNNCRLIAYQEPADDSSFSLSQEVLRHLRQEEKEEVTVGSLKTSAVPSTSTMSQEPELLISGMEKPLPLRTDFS", "assay": "THP-1 STING Lucia ISG reporter cell line assay", "format": "cell-based", "conditions": "24 h incubation, luminescence, normalized to ML RR-S2 CDA 40 μM; read-out: EC50 THP-I STING Lucia ISG cells", "description": "(§2) THP-1 STING Lucia ISG cells (InvivoGen #thpl-isg) were cultured in RPMI-1640 containing 2 mM L-glutamine, 25 mM HEPES, 100 μg/mL Normocin (InvivoGen) and 10% heat-inactivated FBS. Cells were seeded at a density of 7×10^5 cells/mL, maintained at 37° C./5% CO2, and passaged every 3-4 days. Selection pressure was maintained by the addition of 100 μg/mL Zeocin every second passage.\n(§3) Assay conditions: cells were harvested and resuspended at a concentration of 5×10^5 cells/mL in fresh growth media. Of this cell preparation 20 μL per well was dispensed into 384 well cell culture plates (Greiner, #781098X) and incubated at 37° C./5% CO2 for 2 hours.\n(§4) Concentration Response Curves (commonly 11 doses) were prepared by 2.5 fold serial dilution starting from 10 mM compound stock solution in DMSO. Compound dilutions were transferred into the cell culture plates using a pintool (0.1 μL transfer), control wells were matched for DMSO. Positive control wells received ML RR-S2 CDA (Med Chem Express HY12885B) in 5 μL of media to a final concentration of 40 μM. All other wells received additional 5 μL of media only to equalize volume. The plates were incubated for 24 h at 37° C./5% CO2.\n(§5) For the detection step, QUANTI-Luc (InvivoGen #rep-qlc1) was prepared according to manufacturer's instruction and 10 μL were added per well to the culture plates. Plates were shaken for ten seconds on an orbital shaker and left in the dark at room temperature for two minutes, before luminescence was read on a Perkin Elmer Envision plate reader.\n(§6) Data analysis: Luminescence raw data was normalized % activity relative to the signal of the positive control wells and negative control wells which were not treated with compound. The following formula was used to calculate normalized % activity from raw signals: % activity=(sample−negative)/(positive−negative)\n(§7) The THP-1 STING Lucia ISG cell EC50 provides an assessment of activity at the human HAQ isoform of STING. For assessing compound activity against the WT human STING isoform, an equivalent method was conducted where the cells used were THP-1-Dual KI-hSTING-R232 (InvivoGen #thpd-r232)."}, "[4]": {"target": "T2, human STING (WT) (Homo sapiens (Human), UniProt Q86WV6, H232R)", "T2 sequence (Q86WV6 149-345 H232R)": "as the sequence (Q86WV6 149-345 G230A/H232R/R293Q) above, with A82G, Q145R counted along it", "assay": "Differential scanning fluorimetry (DSF), huSTING (WT)", "format": "binding", "conditions": "compound 100 μM, 2 μM protein, Tm with ligand minus Tm of protein alone (1% DMSO)", "description": "as §1"}, "[5]": {"target": "T2, human STING (WT)", "assay": "Surface Plasmon Resonance (SPR), STING (WT)", "conditions": "read-out: SPR (WT) KD; biotinylated STING on streptavidin chip, 8° C."}, "[6]": {"target": "WT human STING isoform (Homo sapiens (Human), UniProt Q86WV6, H232R)", "sequence (Q86WV6 whole entry H232R, canonical isoform)": "as the sequence (Q86WV6 whole entry R71H/G230A/H232R/R293Q, canonical isoform) above, with H71R, A230G, Q293R counted along it", "assay": "THP-1-Dual KI-hSTING-R232 reporter cell line assay", "format": "cell-based", "conditions": "24 h incubation, luminescence, normalized to ML RR-S2 CDA 40 μM; read-out: EC50 THP-1 Dual KI-hSTING-R232 cells", "description": "as §2, §3, §4, §5, §6, §7"}},
  "data": [
    {"smiles": "NC(=O)c1ccc2c(c1)nc(-c1c(C(=O)O)sc3cccc(Cl)c13)n2CCCCn1c(-c2c(C(=O)O)sc3cccc(Cl)c23)nc2cc(C(N)=O)ccc21", "note": "[Example 3, 3,3′-(Butane-1,4-diylbis(5-carbamoyl-1H-benzo[d]imidazole-1,2-diyl))bis(4-chlorobenzo[b]thiophene-2-carboxylic acid)]", "values": [
      {"measurement": "Kd", "setting": "[1]", "result": 5.06, "unit": "µM"},
      {"measurement": "ΔTm at 100 µM", "setting": "[2]", "result": -0.55, "unit": "°C"},
      {"measurement": "EC50", "setting": "[3]", "result": "> 40", "unit": "µM"},
      {"measurement": "ΔTm at 100 µM", "setting": "[4]", "result": -1.83, "unit": "°C"},
      {"measurement": "Kd", "setting": "[5]", "result": 6.3, "unit": "µM"},
      {"measurement": "EC50", "setting": "[6]", "result": "> 40", "unit": "µM"}
    ]},
    {"smiles": "COc1ccc(F)c2sc(C(=O)O)c(-c3nc4cc(C(N)=O)ccc4n3CCn3c(-c4c(C(=O)O)sc5c(F)ccc(OC)c45)nc4cc(C(N)=O)ccc43)c12", "note": "(single isomer, unassigned) [Example 13.2, 3,3′-(Ethane-1,2-diylbis(5-carbamoyl-1H-benzo[d]imidazole-1,2-diyl))bis(7-fluoro-4-methoxybenzo[b]thiophene-2-carboxylic acid)]", "values": [
      {"measurement": "DSF huSTING (HAQ) ΔTm", "setting": "[2]", "result": 0.89, "unit": "°C"},
      {"measurement": "EC50", "setting": "[3]", "result": "> 40", "unit": "µM"},
      {"measurement": "DSF huSTING (WT) ΔTm", "setting": "[4]", "result": "−1.43", "unit": "°C"},
      {"measurement": "Kd", "setting": "[5]", "result": 2.37, "unit": "µM"},
      {"measurement": "EC50", "setting": "[6]", "result": "> 40", "unit": "µM"}
    ]},
    {"smiles": "NC(=O)c1ccc2c(c1)nc(-c1c(C(=O)O)sc3c(F)ccc(Cl)c13)n2CCn1c(-c2c(C(=O)O)sc3c(F)ccc(Cl)c23)nc2cc(C(N)=O)ccc21", "note": "(single isomer, unassigned) [Example 2.2, 3,3′-(Ethane-1,2-diylbis(5-carbamoyl-1H-benzo[d]imidazole-1,2-diyl))bis(4-chloro-7-fluorobenzo[b]thiophene-2-carboxylic acid)]", "values": [
      {"measurement": "Kd", "setting": "[1]", "result": 0.124, "unit": "µM"},
      {"measurement": "DSF huSTING (HAQ) ΔTm", "setting": "[2]", "result": 22.2, "unit": "°C"},
      {"measurement": "EC50", "setting": "[3]", "result": 8.32, "unit": "µM"},
      {"measurement": "DSF huSTING (WT) ΔTm", "setting": "[4]", "result": 8.85, "unit": "°C"},
      {"measurement": "EC50", "setting": "[6]", "result": 4.3, "unit": "µM"}
    ]},
    {"smiles": "N#Cc1cccc2sc(C(=O)O)c(-c3nc4cc(C(N)=O)ccc4n3CCn3c(-c4c(C(=O)O)sc5cccc(C#N)c45)nc4cc(C(N)=O)ccc43)c12", "note": "[Example 17, 3,3′-(Ethane-1,2-diylbis(5-carbamoyl-1H-benzo[d]imidazole-1,2-diyl))bis(4-cyanobenzo[b]thiophene-2-carboxylic acid)]", "values": [
      {"measurement": "Kd", "setting": "[1]", "result": 38, "unit": "µM"},
      {"measurement": "ΔTm at 100 µM", "setting": "[2]", "result": 3.27, "unit": "°C"},
      {"measurement": "EC50", "setting": "[3]", "result": 14.9, "unit": "µM"},
      {"measurement": "ΔTm at 100 µM", "setting": "[4]", "result": -2.58, "unit": "°C"},
      {"measurement": "EC50", "setting": "[6]", "result": 9.4, "unit": "µM"}
    ]},
    {"smiles": "NC(=O)c1ccc2c(c1)nc(-c1c(C(=O)O)sc3ccccc13)n2CCn1c(-c2c(C(=O)O)sc3ccccc23)nc2cc(C(N)=O)ccc21", "note": "[Example 9, 3,3′-(Ethane-1,2-diylbis(5-carbamoyl-1H-benzo[d]imidazole-1,2-diyl))bis(benzo[b]thiophene-2-carboxylic acid)]", "values": [
      {"measurement": "Kd", "setting": "[1]", "result": 10.1, "unit": "µM"},
      {"measurement": "ΔTm at 100 µM", "setting": "[2]", "result": 6.7, "unit": "°C"},
      {"measurement": "EC50", "setting": "[3]", "result": "> 40", "unit": "µM"},
      {"measurement": "ΔTm at 100 µM", "setting": "[4]", "result": 2.36, "unit": "°C"},
      {"measurement": "EC50", "setting": "[6]", "result": 3.65, "unit": "µM"}
    ]},
    {"smiles": "NC(=O)c1ccc2c(c1)nc(-c1c(C(=O)O)sc3cccc(Br)c13)n2CCn1c(-c2c(C(=O)O)sc3cccc(Br)c23)nc2cc(C(N)=O)ccc21", "note": "(single isomer, unassigned) [Example 11.2, 3,3′-(Ethane-1,2-diylbis(5-carbamoyl-1H-benzo[d]imidazole-1,2-diyl))bis(4-bromobenzo[b]thiophene-2-carboxylic acid)]", "values": [
      {"measurement": "DSF huSTING (HAQ) ΔTm", "setting": "[2]", "result": "−1.75", "unit": "°C"},
      {"measurement": "EC50", "setting": "[3]", "result": 5.48, "unit": "µM"},
      {"measurement": "DSF huSTING (WT) ΔTm", "setting": "[4]", "result": "−5.12", "unit": "°C"},
      {"measurement": "Kd", "setting": "[5]", "result": 1.43, "unit": "µM"},
      {"measurement": "EC50", "setting": "[6]", "result": 2.83, "unit": "µM"}
    ]},
    {"smiles": "Cc1cccc2sc(C(=O)O)c(-c3nc4cc(C(N)=O)ccc4n3CCn3c(-c4c(C(=O)O)sc5cccc(C)c45)nc4cc(C(N)=O)ccc43)c12", "note": "(single isomer, unassigned) [Example 15.1, 3,3′-(Ethane-1,2-diylbis(5-carbamoyl-1H-benzo[d]imidazole-1,2-diyl))bis(4-methylbenzo[b]thiophene-2-carboxylic acid)]", "values": [
      {"measurement": "ΔTm at 100 µM", "setting": "[2]", "result": 24.6, "unit": "°C"},
      {"measurement": "EC50", "setting": "[3]", "result": 1.54, "unit": "µM"},
      {"measurement": "ΔTm at 100 µM", "setting": "[4]", "result": 10.5, "unit": "°C"},
      {"measurement": "Kd", "setting": "[5]", "result": 0.43, "unit": "µM"},
      {"measurement": "EC50", "setting": "[6]", "result": 1.01, "unit": "µM"}
    ]}
  ]
}
